Measurements from patent US5112739A, “Enzyme controlled release system” (Polaroid Corporation, priority 1988, dated 1992).

What was measured:
Type in all cases: biochemical
[1] = molecular target: β-galactosidase from e. coli (Escherichia coli, UniProt P00722); assay: relative release rate of the leaving group on cleavage by β-galactosidase, spectrophotometric; settings: for APPROXIMATE RELATIVE RATE (release of leaving group, compared with ONPG): 5 × 10^-5 M compound, pH7 tris buffer, 0.01 M NaCl, 0.01 M MgCl2, 25° C., 1.5 IU β-galactosidase, ONPG = 1.0; for release rate, comparison in words: same test as the relative rate table, β-galactosidase from e. coli
Protocol: The approximate relative release rates of the leaving groups of compounds according to the invention compared with that of o-nitrophenolgalactoside (ONPG) were measured according to the following procedure: a 5 × 10^-5 M solution of the compound was formed in pH7 tris(hydroxymethyl)aminomethane buffer which was 0.01 M in sodium chloride and 0.01 M in magnesium chloride at 25° C. The solution was placed in a 3 ml cuvette and 1.5 IU of β-galactosidase from e. coli introduced. The reaction mixture was monitored in a spectrophotometer at the appropriate wavelength.

[2] = system: β-galactosidase (e. coli); assay: fluorescence rate of compound B as a function of β-galactosidase concentration (standard curve); settings: 45 μl 0.614 mmolar compound + 5 μl enzyme, pH 7.6, ex 550 nm/em 580 nm, 0 and 2 minutes, average of two
[3] = system: anti α-TSH-β-galactosidase conjugate; assay: release of dye from compound B by anti α-TSH-β-galactosidase conjugate, optical density and fluorescence; settings: 100 μl of 0.3 mmolar mixture, pH 7.0 buffer, + 10 μl conjugate, 15 minutes at 37° C., enzyme 1.3 × 10^-12 molar
Protocol: A 0.3 :mmolar mixture of compound B in a pH 7.0 buffer (0.1 molar NaH2 PO 0.15 molar NaCl, 0.1% Zwittergent 3-14) was stirred at room temperature for 30 minutes and then filtered through a 0.22 μ filter element. The concentration of the compound was calculated by diluting the solution (1:10) to provide an optical density of between 0.39 and 0.41 at 470 nm (ε=20,000).
The solution (100 μl) was added to a microtiter plate well and the optical density was measured at 570 nm with an EIA Auto Reader, Model EL 310 from Bio Tek Instruments. The fluorescence of the same 100 μl volume of the solution was measured with a Titertek Fluoroska® from Flow Laboratories by exciting at 550 nm and reading at 580 nm.
To each of the 100 μl volumes of the solution there were added 10 μl of an anti α-TSH-β-galactosidase conjugate ([…] in β-galactosidase) and the mixtures were incubated for 15 minutes at 37° C. followed by measuring the optical density and fluorescence as described above.

Sequence of β-galactosidase from e. coli (P00722 whole entry): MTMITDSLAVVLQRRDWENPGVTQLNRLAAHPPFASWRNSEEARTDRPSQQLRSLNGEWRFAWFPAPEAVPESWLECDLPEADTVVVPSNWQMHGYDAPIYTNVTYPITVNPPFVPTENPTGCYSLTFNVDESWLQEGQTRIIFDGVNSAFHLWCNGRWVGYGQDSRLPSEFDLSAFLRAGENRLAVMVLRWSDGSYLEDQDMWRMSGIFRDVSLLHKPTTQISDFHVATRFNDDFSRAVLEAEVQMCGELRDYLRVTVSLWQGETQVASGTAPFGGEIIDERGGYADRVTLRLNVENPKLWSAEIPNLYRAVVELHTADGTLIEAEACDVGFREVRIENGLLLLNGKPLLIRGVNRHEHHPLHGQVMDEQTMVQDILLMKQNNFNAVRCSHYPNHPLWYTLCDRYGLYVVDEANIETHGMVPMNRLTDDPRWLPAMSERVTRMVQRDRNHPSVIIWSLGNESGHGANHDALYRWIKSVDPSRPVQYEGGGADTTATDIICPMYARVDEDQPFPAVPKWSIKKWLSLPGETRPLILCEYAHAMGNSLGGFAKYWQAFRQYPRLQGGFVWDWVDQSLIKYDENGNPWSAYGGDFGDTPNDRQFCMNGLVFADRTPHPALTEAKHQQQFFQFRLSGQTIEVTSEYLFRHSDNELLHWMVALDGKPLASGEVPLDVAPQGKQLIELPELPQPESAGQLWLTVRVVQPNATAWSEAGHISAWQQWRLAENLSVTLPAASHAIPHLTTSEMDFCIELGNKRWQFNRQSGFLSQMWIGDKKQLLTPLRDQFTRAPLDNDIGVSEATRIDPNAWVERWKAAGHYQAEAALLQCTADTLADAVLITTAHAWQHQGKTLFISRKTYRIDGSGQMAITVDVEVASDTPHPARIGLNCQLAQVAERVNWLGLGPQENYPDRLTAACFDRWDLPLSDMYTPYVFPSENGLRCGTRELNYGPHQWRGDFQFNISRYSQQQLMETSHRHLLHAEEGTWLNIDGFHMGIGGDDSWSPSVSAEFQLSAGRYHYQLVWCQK

Row | Structure (SMILES) | APPROXIMATE RELATIVE RATE (release of leaving group, compared with ONPG) [1] | release rate, comparison in words [1] | further results
1 | O=c1ccc2nc3ccc(OCc4ccc(O[C@@H]5O[C@H](CO)[C@H](O)[C@H](O)[C@H]5O)c([N+](=O)[O-])c4)cc3oc-2c1 [A] | 0.25 | significantly different release rates | 
2 | Cc1cc(=O)c(C(=O)N2CCOCC2)c2oc3c(C(=O)N4CCOCC4)c(OCc4ccc(O[C@@H]5O[C@H](CO)[C@H](O)[C@H](O)[C@H]5O)c([N+](=O)[O-])c4)cc(C)c3nc1-2 [B] | 0.3 |  | change in voltage/minute (fluorescence) ([2]; Enzyme Conc. 1 × 10^-11): 2.161 V/min; change in voltage/minute (fluorescence) ([2]; Enzyme Conc. 1 × 10^-12): 0.247 V/min; change in voltage/minute (fluorescence) ([2]; Enzyme Conc. 1 × 10^-13): 0.035 V/min; change in voltage/minute (fluorescence) ([2]; Enzyme Conc. 3 × 10^-12): 0.734 V/min; change in voltage/minute (fluorescence) ([2]; Enzyme Conc. 3 × 10^-13): 0.078 V/min; change in optical density ([3]; 570 nm): 0.0594; change in fluorescence ([3]; excitation 550 nm, reading 580 nm): 7266 mV
3 | O=c1ccc2nc3ccc(OCc4cc([N+](=O)[O-])ccc4O[C@@H]4O[C@H](CO)[C@H](O)[C@H](O)[C@H]4O)cc3oc-2c1 [C] | 0.005-0.05 | significantly different release rates | 
4 | O=C(c1cc(O[C@@H]2O[C@H](CO)[C@H](O)[C@H](O)[C@H]2O)c([N+](=O)[O-])cc1COc1ccc2nc3ccc(=O)cc-3oc2c1)N1CCOCC1 [D] | 0.02 | much slower release rate | 
5 | O=C(c1cc2ccc(OCc3ccc(O[C@@H]4O[C@H](CO)[C@H](O)[C@H](O)[C@H]4O)c([N+](=O)[O-])c3)cc2oc1=O)N1CCOCC1 [E] | 0.1-0.5 |  | 
6 | O=[N+]([O-])c1ccccc1O[C@@H]1O[C@H](CO)[C@H](O)[C@H](O)[C@H]1O [ONPG, o-nitrophenolgalactoside, reference compound] | 1.0 |  | 
